Data reported in patent publication US20140193827A1 (TEVA PHARMACEUTICAL INDUSTRIES, LTD., priority 2013, published 2014).

Tested on: GA-primed murine splenocytes
Experiment: Tolerance method for assessing process variability

Substance: glatiramer acetate [GA]
- AVG expression IRGB10 (probe ILMN_2534151): 9.691
- AVG expression LOC624610 (probe ILMN_2537948): 8.96
- AVG expression LOC666559 (probe ILMN_2540103): 10.7199
- AVG expression AUH (probe ILMN_2543417): 8.451
- AVG expression HIPK2 (probe ILMN_2545445): 7.332
- AVG expression GNG12 (probe ILMN_2546272): 9.731
- AVG expression 4930426D05RIK (probe ILMN_2548681): 7.1
- AVG expression A130093I21RIK (probe ILMN_2553041): 7.932
- AVG expression A630006E02RIK (probe ILMN_2560567): 9.937
- AVG expression NDR3 (probe ILMN_2571414): 6.289
- AVG expression GAD1 (probe ILMN_2573826): 6.891
- AVG expression B930094H08R1K (probe ILMN_2578341): 6.497
- AVG expression D530007E13RIK (probe ILMN_2581681): 8.386
- AVG expression IL8RA (probe ILMN_2588216): 6.682
- AVG expression PLTP (probe ILMN_2589401): 7.226
- AVG expression IL27RA (probe ILMN_2591156): 8.583
- AVG expression BC021614 (probe ILMN_2591342): 7.519
- AVG expression QPRT (probe ILMN_2591754): 7.245
- AVG expression genericLYRP1 (probe ILMN_2592486): 7.785
- AVG expression SCG5 (probe ILMN_2592953): 6.961
- AVG expression DOCK10 (probe ILMN_2593143): 11.3
- AVG expression IGTP (probe ILMN_2593554): 12.78
- AVG expression KCNK13 (probe ILMN_2593787): 6.48
- AVG expression NSDHL (probe ILMN_2594521): 8.078
- AVG expression NSDHL (probe ILMN_2594525): 8.365
- AVG expression LOC100046232 (probe ILMN_2595732): 11.55
- AVG expression RGS1 (probe ILMN_2596596): 8.683
- AVG expression SLC44A2 (probe ILMN_2599719): 11.36
- AVG expression MPO (probe ILMN_2600421): 7.594
- AVG expression OVGP1 (probe ILMN_2600928): 6.54
- AVG expression A130092J06RIK (probe ILMN_2601453): 10.81
- AVG expression CREM (probe ILMN_2602899): 7.714
- AVG expression KLF2 (probe ILMN_2604029): 11.34
- AVG expression RANBP10 (probe ILMN_2605453): 9.654
- AVG expression AI646023 (probe ILMN_2605858): 6.049
- AVG expression AGFG1 (probe ILMN_2606072): 9.007
- AVG expression PDLIM4 (probe ILMN_2606162): 9.727
- AVG expression ACOT7 (probe ILMN_2606180): 9.205
- AVG expression CMAH (probe ILMN_2606825): 7.634
- AVG expression CHI3L1 (probe ILMN_2609813): 9.339
- AVG expression IFT172 (probe ILMN_2611450): 8.856
- AVG expression SLC25A19 (probe ILMN_2611532): 9.008
- AVG expression SERPINB6B (probe ILMN_2611755): 8.188
- AVG expression ARHGEF18 (probe ILMN_2612125): 10.09
- AVG expression LSS (probe ILMN_2614161): 9.397
- AVG expression B3GNT8 (probe ILMN_2614889): 8.954
- AVG expression DPP4 (probe ILMN_2615096): 9.69
- AVG expression CHAC1 (probe ILMN_2617468): 8.051
- AVG expression C330008K14RIK (probe ILMN_2618148): 10.14
- AVG expression SLC2A6 (probe ILMN_2618918): 10.76
- AVG expression LGALS1 (probe ILMN_2619107): 10.71
- AVG expression ERAF (probe ILMN_2619200): 8.714
- AVG expression PRNP (probe ILMN_2619316): 9.719
- AVG expression ATF3 (probe ILMN_2619408): 6.791
- AVG expression RGS1 (probe ILMN_2625377): 9.769
- AVG expression ACSS1 (probe ILMN_2628174): 10.26
- AVG expression SOCS2 (probe ILMN_2628178): 9.548
- AVG expression ASAH3L (probe ILMN_2629112): 6.995
- AVG expression CPM (probe ILMN_2629191): 9.17
- AVG expression PPAP2B (probe ILMN_2630993): 7.507
- AVG expression TMEM71 (probe ILMN_2631610): 6.536
- AVG expression CTLA4 (probe ILMN_2631752): 8.62
- AVG expression ACOT7 (probe ILMN_2632264): 11.36
- AVG expression SOCS1 (probe ILMN_2634796): 7.681
- AVG expression IGH-VJ558 (probe ILMN_2635272): 13.22
- AVG expression AXUD1 (probe ILMN_2636403): 10.85
- AVG expression PLA2G12A (probe ILMN_2636536): 9.884
- AVG expression SLAMF7 (probe ILMN_2638491): 8.628
- AVG expression HSPD1 (probe ILMN_2639036): 9.439
- AVG expression AK2 (probe ILMN_2641360): 10.39
- AVG expression GTF2I (probe ILMN_2642462): 11.52
- AVG expression EMP1 (probe ILMN_2642913): 7.96
- AVG expression ASNS (probe ILMN_2643513): 9.742
- AVG expression THY1 (probe ILMN_2644350): 11.24
- AVG expression MVD (probe ILMN_2645275): 9.423
- AVG expression SAMSN1 (probe ILMN_2646322): 11.87
- AVG expression JUN (probe ILMN_2646625): 8.291
- AVG expression CENTD1 (probe ILMN_2646891): 10.77
- AVG expression SIGLECG (probe ILMN_2648454): 9.552
- AVG expression GPNMB (probe ILMN_2648669): 7.401
- AVG expression MAN2A2 (probe ILMN_2650255): 6.819
- AVG expression ARHGAP9 (probe ILMN_2650739): 9.141
- AVG expression SLC12A7 (probe ILMN_2650953): 6.744
- AVG expression genericK1 (probe ILMN_2651886): 11.36
- AVG expression LRG1 (probe ILMN_2652500): 6.12
- AVG expression IFI47 (probe ILMN_2652857): 11.72
- AVG expression SESN1 (probe ILMN_2654074): 10.45
- AVG expression MYO6 (probe ILMN_2656854): 8.468
- AVG expression IFITM3 (probe ILMN_2658501): 11.43
- AVG expression TG (probe ILMN_2658878): 7.479
- AVG expression DGKA (probe ILMN_2658961): 11.07
- AVG expression IL7R (probe ILMN_2659739): 6.443
- AVG expression ACOT7 (probe ILMN_2660182): 8.55
- AVG expression ST6GALNAC4 (probe ILMN_2660837): 8.481
- AVG expression SCML4 (probe ILMN_2661185): 8.584
- AVG expression RAB35 (probe ILMN_2662097): 11.43
- AVG expression LMNA (probe ILMN_2662387): 8.27
- AVG expression SLAMF9 (probe ILMN_2663249): 8.243
- AVG expression EPHX1 (probe ILMN_2664224): 9.837
- AVG expression 3110013H01RIK (probe ILMN_2664726): 8.045
- AVG expression RIN3 (probe ILMN_2665545): 9.015
- AVG expression HEMK1 (probe ILMN_2666272): 9.174
- AVG expression PRG4 (probe ILMN_2668333): 5.989
- AVG expression HP (probe ILMN_2668509): 7.287
- AVG expression HP (probe ILMN_2668510): 7.507
- AVG expression CTSA (probe ILMN_2669714): 9.205
- AVG expression KIF1B (probe ILMN_2670778): 8.422
- AVG expression PFKP (probe ILMN_2673233): 8.097
- AVG expression 2310047A01RIK (probe ILMN_2675922): 7.606
- AVG expression GRIFIN (probe ILMN_2676543): 6.233
- AVG expression RNF144A (probe ILMN_2678127): 7.59
- AVG expression MNS1 (probe ILMN_2678431): 8.22
- AVG expression DUSP10 (probe ILMN_2678724): 8.26
- AVG expression RASGRP2 (probe ILMN_2678726): 6.734
- AVG expression IL7R (probe ILMN_2680827): 8.445
- AVG expression BCL2 (probe ILMN_2682162): 8.675
- AVG expression NALP6 (probe ILMN_2684600): 6.205
- AVG expression HMHA1 (probe ILMN_2685023): 11.42
- AVG expression CCR5 (probe ILMN_2685392): 7.052
- AVG expression CCR5 (probe ILMN_2685393): 7.202
- AVG expression IFNG (probe ILMN_2685712): 11.16
- AVG expression PRM1 (probe ILMN_2687652): 6.849
- AVG expression MCOLN2 (probe ILMN_2689401): 7.5921
- AVG expression PKIB (probe ILMN_2690241): 7.745
- AVG expression JAKMIP1 (probe ILMN_2690460): 9.597
- AVG expression KLHL14 (probe ILMN_2691014): 6.305
- AVG expression 9330186A19RIK (probe ILMN_2692554): 6.749
- AVG expression TGM2 (probe ILMN_2692615): 8.055
- AVG expression ERO1LB (probe ILMN_2692960): 10.32
- AVG expression CCDC125 (probe ILMN_2693679): 7.065
- AVG expression PNPLA7 (probe ILMN_2695047): 7.637
- AVG expression KIFC2 (probe ILMN_2695158): 6.733
- AVG expression PHF11 (probe ILMN_2696491): 9.238
- AVG expression PHF11 (probe ILMN_2696492): 9.454
- AVG expression MSCP (probe ILMN_2696609): 8.264
- AVG expression SLC25A37 (probe ILMN_2696610): 8.278
- AVG expression CD3D (probe ILMN_2697415): 11.45
- AVG expression HIST1H3H (probe ILMN_2698519): 8.014
- AVG expression RGS10 (probe ILMN_2699531): 9.937
- AVG expression ITGAE (probe ILMN_2699898): 7.502
- AVG expression CCND2 (probe ILMN_2700168): 10.82
- AVG expression DENND5B (probe ILMN_2700354): 7.911
- AVG expression IBRDC3 (probe ILMN_2700689): 9.29
- AVG expression LGALS7 (probe ILMN_2703182): 6.931
- AVG expression STAC2 (probe ILMN_2703563): 6.876
- AVG expression FCRLA (probe ILMN_2703829): 11.55
- AVG expression LIMD2 (probe ILMN_2705878): 8.037
- AVG expression SYNGR2 (probe ILMN_2706231): 11.42
- AVG expression SYNGR2 (probe ILMN_2706232): 11.09
- AVG expression LOC100046608 (probe ILMN_2706514): 8.612
- AVG expression GPR83 (probe ILMN_2707941): 9.205
- AVG expression 5100A8 (probe ILMN_2710905): 12.62
- AVG expression IRGM1 (probe ILMN_2711172): 7.157
- AVG expression LOC100047619 (probe ILMN_2711948): 10.95
- AVG expression TIMP2 (probe ILMN_2712867): 6.749
- AVG expression CHI3L3 (probe ILMN_2712986): 7.589
- AVG expression SDC3 (probe ILMN_2715042): 9.146
- AVG expression SLC12A6 (probe ILMN_2716511): 9.952
- AVG expression MAPK11 (probe ILMN_2716622): 8.853
- AVG expression RGL1 (probe ILMN_2717176): 7.561
- AVG expression TCF7 (probe ILMN_2717975): 8.216
- AVG expression CISH (probe ILMN_2718330): 11.35
- AVG expression SLAMF1 (probe ILMN_2721571): 9.069
- AVG expression CD3G (probe ILMN_2722784): 10.75
- AVG expression CCR8 (probe ILMN_2724465): 6.962
- AVG expression MAPK12 (probe ILMN_2724570): 6.86
- AVG expression IL2 (probe ILMN_2725259): 7.49
- AVG expression NSDHL (probe ILMN_2725402): 8.035
- AVG expression CD9 (probe ILMN_2725414): 8.904
- AVG expression SYTL3 (probe ILMN_2725448): 7.03
- AVG expression SERPINA3G (probe ILMN_2725927): 13.9
- AVG expression EN2 (probe ILMN_2726471): 6.583
- AVG expression B4GALNT1 (probe ILMN_2728270): 10.26
- AVG expression 5830431A10R1K (probe ILMN_2729252): 7.881
- AVG expression HIST1H3D (probe ILMN_2729958): 9.844
